The results in this text go back to the NIST ThermoML archive (doi:10.1016/j.fluid.2014.12.001).

SMILES strings stand for the structures. ± gives the expanded uncertainty stated by the source.

For series [1] the following is noted: Crystal; visual observation.
Series [2] in a line: Molar enthalpy of transition or fusion. Conditions: Crystal; DSC.

Regarding `Oc1cccc2ccccc12` [1-naphthol], the Normal melting temperature in series [1] amounted to 95.10 ± 1.1 °C. The “Molar enthalpy of transition or fusion” value in series [2] is 5.2 ± 0.237 kcal/mol.
The matching figures for `Nc1ccccc1[N+](=O)[O-]` [2-nitroaniline]: 69.7 ± 1.1 °C and 4.6 ± 0.21 kcal/mol.
